Measured values taken from patent US11091478B2 (Fochon Pharmaceuticals, Ltd., priority 2017, dated 2021).

Legend:
[1] = system: RS4;11 cells; experiment: Cell proliferation assay (MTS), RS4;11 cells, 72 h; assay type: cell-based; settings: Homo sapiens, RS4-11, 72 h
Procedure, shortened: (§1)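 Treatment lasts 72 h for RS4;11 and 120 h for DOHH2 cells seeded at 5000 per well in serum-containing RPMI-1640. A 2 h MTS step, halted with 10% SDS, precedes dual-wavelength absorbance reading and IC50 fitting.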

[2] = system: DOHH2 cells; experiment: Cell proliferation assay (MTS), DOHH2 cells, 120 h; assay type: cell-based; settings: Homo sapiens, DOHH-2, 120 h
Procedure, shortened: as §1

Structure (SMILES) | IC50 [1] | IC50 [2]
CC1(C)CCC(CN2CCN(c3ccc(C(=O)NS(=O)(=O)c4cc5c(c([N+](=O)[O-])c4)N[C@H](CC4CCN(S(C)(=O)=O)CC4)CO5)c(Oc4cnc5[nH]ccc5c4)c3)CC2)=C(c2ccc(Cl)cc2)C1 [Example 2-204, (R)-2-((1H-pyrrolo[2,3-b]pyridin-5-yl)oxy)-4-(4-((4′-chloro-5,5-dimethyl-3,4,5,6-tetra-hydro-[1,1′-biphenyl]-2-yl)methyl)piperazin-1-yl)-N-((3-((1-(methylsulfonyl)piperidin-4-yl)methyl)-5-nitro-3,4-dihydro-2H-benzo [b][1,4]oxazin-7-yl)sulfonyl)benzamide] | 26 nM | 17 nM
CC1(C)CCC(CN2CCN(c3ccc(C(=O)NS(=O)(=O)c4cc5c(c([N+](=O)[O-])c4)N[C@@H](c4ccc(C#N)cc4)CO5)c(Oc4cnc5[nH]ccc5c4)c3)CC2)=C(c2ccc(Cl)cc2)C1 [Example 2-206, (S)-2-((1H-pyrrolo[2,3-b]pyridin-5-yl)oxy)-4-(4-((4′-chloro-5,5-dimethyl-3,4,5,6-tetra-hydro-[1,1′-biphenyl]-2-yl)methyl)piperazin-1-yl)-N-((3-(4-cyanophenyl)-5-nitro-3,4-dihdyro-2H-benzo[b][1,4]oxazin-7-yl)sulfo-nyl)benzamide] | 21 nM | 312 nM
CC1(C)CCC(CN2CCN(c3ccc(C(=O)NS(=O)(=O)c4cc5c(c([N+](=O)[O-])c4)N[C@@H](Cc4ccccc4C#N)CO5)c(Oc4cnc5[nH]ccc5c4)c3)CC2)=C(c2ccc(Cl)cc2)C1 [Example 2-208, (S)-2-((1H-pyrrolo[2,3-b]pyridin-5-yl)oxy)-4-(4-((4′-chloro-5,5-dimethyl-3,4,5,6-tetra-hydro-[1,1′-biphenyl]-2-yl)methyl)piperazin-1-yl)-N-((3-(2-cyanobenzyl)-5-nitro-3,4-dihydro-2H-benzo[b][1,4]oxazin-7-yl)sulfo-nyl)benzamide] | 17 nM | 110 nM
CC1(C)CCC(c2ccc(Cl)cc2)=C(CN2CCN(c3ccc(C(=O)NS(=O)(=O)c4cc5c(c([N+](=O)[O-])c4)N[C@H](CN4C[C@@H]6C[C@H]4CO6)CO5)c(Oc4cnc5[nH]ccc5c4)c3)CC2)C1 [Example 2-209, 2-((1H-pyrrolo[2,3-b]pyridin-5-yl)oxy)-N-(((R)-3-(((1S,4S)-2-oxa-5-azabicyclo[2.2.1]heptan-5-yl)methyl)-5-nitro-3,4-dihydro-2H-benzo[b][1,4]oxazin-7-yl)sulfonyl)-4-(4-((4′-chloro-4,4-dimethyl-3,4,5,6-tetrahydro-[1,1′-biphenyl]-2-yl)methyl)piperazin-1-yl) benzamide] | 1 nM | 35 nM
C[C@@H]1CN(C[C@@H]2COc3cc(S(=O)(=O)NC(=O)c4ccc(N5CCN(CC6=C(c7ccc(Cl)cc7)CCC(C)(C)C6)CC5)cc4Oc4cnc5[nH]ccc5c4)cc([N+](=O)[O-])c3N2)CCN1C1COC1 [Example 2-210, 2-((1H-pyrrolo[2,3-b]pyridin-5-yl)oxy)-4-(4-((4′-chloro-4,4-dimethyl-3,4,5,6-tetrahydro-[1,1′-biphenyl]-2-yl)methyl)piperazin-1-yl)-N-(((R)-3-(((R)-3-methyl-4-(oxetan-3-yl)piperazin-1-yl)methyl)-5-nitro-3,4-dihydro-2H-benzo[b][1,4]oxazin-7-yl)sulfonyl) benzamide] | 7 nM | 35 nM
CC1(C)CCC(c2ccc(Cl)cc2)=C(CN2CCN(c3ccc(C(=O)NS(=O)(=O)c4cc5c(c([N+](=O)[O-])c4)N[C@@H](Cc4ccccn4)CO5)c(Oc4cnc5[nH]ccc5c4)c3)CC2)C1 [Example 2-211, (S)-2-((1H-pyrrolo[2,3-b]pyridin-5-yl)oxy)-4-(4-((4′-chloro-4,4-dimethyl-3,4,5,6-tetra-hydro-[1,1′-biphenyl]-2-yl)methyl)piperazin-1-yl)-N-((5-nitro-3-(pyridin-2-ylmethyl)-3,4-dihydro-2H-benzo[b][1,4]oxazin-7-yl)sulfonyl)benzamide] | 35 nM | 92 nM

More lines, main results first:

IC50 [1] | Structure (SMILES) | IC50 [2]
8 nM | CC1(C)CCC(c2ccc(Cl)cc2)=C(CN2CCN(c3ccc(C(=O)NS(=O)(=O)c4cc5c(c([N+](=O)[O-])c4)N[C@@H](C4CCOCC4)CO5)c(Oc4cnc5[nH]ccc5c4)c3)CC2)C1 [Example 2-212, (S)-2-((1H-pyrrolo[2,3-b]pyridin-5-yl)oxy)-4-(4-((4′-chloro-4,4-dimethyl-3,4,5,6-tetra-hydro-[1,1′-biphenyl]-2-yl)methyl)piperazin-1-yl)-N-((5-nitro-3-(tetrahydro-2H-pyran-4-yl)-3,4-dihydro-2H-benzo[b][1,4]oxazin-7-yl)sulfonyl)benzamide] | 27 nM
8 nM | CC1(C)CCC(c2ccc(Cl)cc2)=C(CN2CCN(c3ccc(C(=O)NS(=O)(=O)c4cc5c(c([N+](=O)[O-])c4)N[C@H](C4CCOCC4)CO5)c(Oc4cnc5[nH]ccc5c4)c3)CC2)C1 [Example 2-213, (R)-2-((1H-pyrrolo[2,3-b]pyridin-5-yl)oxy)-4-(4-((4′-chloro-4,4-dimethyl-3,4,5,6-tetra-hydro-[1,1′-biphenyl]-2-yl)methyl)piperazin-1-yl)-N-((5-nitro-3-(tetrahydro-2H-pyran-4-yl)-3,4-dihydro-2H-benzo[b][1,4]oxazin-7-yl)sulfonyl)benzamide] | 41 nM
16 nM | CC1(C)CCC(CN2CCN(c3ccc(C(=O)NS(=O)(=O)c4cc5c(c([N+](=O)[O-])c4)N[C@H](CC4CCNCC4)CO5)c(Oc4cnc5[nH]ccc5c4)c3)CC2)=C(c2ccc(Cl)cc2)C1 [Example 2-214, (R)-2-((1H-pyrrolo[2,3-b]pyridin-5-yl)oxy)-4-(4-((4′-chloro-5,5-dimethyl-3,4,5,6-tetra-hydro-[1,1′-biphenyl]-2-yl)methyl)piperazin-1-yl)-N-((5-nitro-3-(piperidin-4-ylmethyl)-3,4-dihydro-2H-benzo[b][1,4]oxazin-7-yl)sulfonyl)benzamide] | 465 nM
3 nM | CC1(C)CCC(CN2CCN(c3ccc(C(=O)NS(=O)(=O)c4cc5c(c([N+](=O)[O-])c4)N[C@@H](C4CCC(C)(O)CC4)CO5)c(Oc4cnc5[nH]ccc5c4)c3)CC2)=C(c2ccc(Cl)cc2)C1 (stereo partly drawn) [Example 2-215, (S)-2-((1H-pyrrolo[2,3-b]pyridin-5-yl)oxy)-4-(4-((4′-chloro-5,5-dimethyl-3,4,5,6-tetra-hydro-[1,1′-biphenyl]-2-yl)methyl)piperazin-1-yl)-N-((3-(4-hydroxy-4-methylcyclohex-yl)-5-nitro-3,4-dihydro-2H-benzo[b][1,4]oxazin-7-yl)sulfonyl)benzamide] | 65 nM
13 nM | CC1(C)CCC(CN2CCN(c3ccc(C(=O)NS(=O)(=O)c4cc5c(c([N+](=O)[O-])c4)N[C@@H](CC4CCC(C)(O)CC4)CO5)c(Oc4cnc5[nH]ccc5c4)c3)CC2)=C(c2ccc(Cl)cc2)C1 (stereo partly drawn) [Example 2-216, (S)-2-((1H-pyrrolo[2,3-b]pyridin-5-yl)oxy)-4-(4-((4′-chloro-5,5-dimethyl-3,4,5,6-tetra-hydro-[1,1′-biphenyl]-2-yl)methyl)piperazin-1-yl)-N-((3-((4-hydroxy-4-methylcyclohex-yl)methyl)-5-nitro-3,4-dihydro-2H-benzo [b][1,4]oxazin-7-yl)sulfonyl)benzamide] | 268 nM
8 nM | CC1(C)CCC(CN2CCN(c3ccc(C(=O)NS(=O)(=O)c4cc5c(c([N+](=O)[O-])c4)N[C@@H](CO)CO5)c(Oc4cnc5[nH]ccc5c4)c3)CC2)=C(c2ccc(Cl)cc2)C1 [Example 2-220, (S)-2-((1H-pyrrolo[2,3-b]pyridin-5-yl)oxy)-4-(4-((4′-chloro-5,5-dimethyl-3,4,5,6-tetra-hydro-[1,1′-biphenyl]-2-yl)methyl)piperazin-1-yl)-N-((3-(hydroxymethyl)-5-nitro-3,4-dihydro-2H-benzo[b][1,4]oxazin-7-yl)sulfonyl)benzamide] | 36 nM
30 nM | CC1(C)CCC(CN2CCN(c3ccc(C(=O)NS(=O)(=O)c4cc5c(c([N+](=O)[O-])c4)N[C@@H](CC4CCNCC4)CO5)c(Oc4cnc5[nH]ccc5c4)c3)CC2)=C(c2ccc(Cl)cc2)C1 [Example 2-221, (S)-2-((1H-pyrrolo[2,3-b]pyridin-5-yl)oxy)-4-(4-((4′-chloro-5,5-dimethyl-3,4,5,6-tetra-hydro-[1,1′-biphenyl]-2-yl)methyl)piperazin-1-yl)-N-((5-nitro-3-(piperidin-4-ylmethyl)-3,4-dihydro-2H-benzo[b][1,4]oxazin-7-yl)sulfonyl)benzamide] | 474 nM
25 nM | CC1(C)CCC(CN2CCN(c3ccc(C(=O)NS(=O)(=O)c4cc5c(c([N+](=O)[O-])c4)N[C@H](C4CCN(C(=O)OC(C)(C)C)CC4)CO5)c(Oc4cnc5[nH]ccc5c4)c3)CC2)=C(c2ccc(Cl)cc2)C1 [Example 2-222, tert-btuyl (R)-4-(7-(N-(2-((1H-pyrrolo[2,3-b]pyridin-5-yl)oxy)-4-(4-((4′-chloro-5,5-dimethyl-3,4,5,6-tetrahydro-[1,1′-biphenyl]-2-yl)methyl)piperazin-1-yl)benzoyl)sulfamoyl)-5-nitro-3,4-dihydro-2H-benzo[b][1,4]oxazin-3-yl) piperidine-1-carboxylate] | 3 nM
1 nM | COC(=O)N1CCC([C@@H]2COc3cc(S(=O)(=O)NC(=O)c4ccc(N5CCN(CC6=C(c7ccc(Cl)cc7)CC(C)(C)CC6)CC5)cc4Oc4cnc5[nH]ccc5c4)cc([N+](=O)[O-])c3N2)CC1 [Example 2-223, methyl (R)-4-(7-(N-(2-((1H-pyrrolo[2,3-b]pyridin-5-yl)oxy)-4-(4-((4′-chloro-5,5-dimethyl-3,4,5,6-tetrahydro-[1,1′-biphenyl]-2-yl)methyl)piperazin-1-yl)benzoyl)sulfamoyl)-5-nitro-3,4-dihydro-2H-benzo[b][1,4]oxazin-3-yl) piperidine-1-carboxylate] | 11 nM
